Like-named read-outs stand apart in the source and are kept apart here.
Assays:
[1] = system: Human tumor cells; experiment: Soft Agar Assay (anchorage-independent growth, colony count after MTT staining); type: cell-based
Experimental: Anchorage-independent growth is a characteristic of tumorigenic cell lines. Human tumor cells can be suspended in growth medium containing 0.3% agarose and an indicated concentration of a farnesyl transferase inhibitor. The solution can be overlayed onto growth medium solidified with 0.6% agarose containing the same concentration of farnesyl transferase inhibitor as the top layer. After the top layer is solidified, plates can be incubated for 10-16 days at 37°C under 5% CO2 to allow colony outgrowth. After incubation, the colonies can be stained by overlaying the agar with a solution of MTT (3-[4,5-dimethyl-thiazol-2-yl]-2,5-diphenyltetrazolium bromide, Thiazolyl blue) (1 mg/mL in PBS). Colonies can be counted and the IC50's can be determined.

[2] = target: farnesyl protein transferase (Homo sapiens, UniProt P49354+P49356); experiment: FPT IC50 (inhibition of farnesyl protein transferase, in vitro enzyme assay); type: biochemical; settings: procedures of WO 95/10516
Experimental: FPT IC50 (inhibition of farnesyl protein transferase, in vitro enzyme assay) was determined following the assay procedures described in WO 95/10516, published April 20, 1995. GGPT IC50 (inhibition of geranylgeranyl protein transferase, in vitro enzyme assay), Cell Mat Assay, COS Cell IC50 (Cell-Based Assay), and anti-tumor activity (in vivo anti-tumor studies) could be determined by the assay procedures described in WO 95/10516. The disclosure of WO 95/10516 is incorporated herein by reference thereto.

[3] = colony outgrowth 10-16 days at 37°C under 5% CO2, read-out: Soft Agar IC50

| Structure (SMILES) | IC50 [1, 3] [nM] | IC50 ([1]; read-out: Soft Agar IC50) [nM] | IC50 [2] [nM] |
| --- | --- | --- | --- |
| CC(C)(C)OC(=O)N1CCN(C2c3ccc(Cl)cc3CCc3cc(Br)cnc32)CC1C(=O)N1CCCC(Cn2ccnc2)C1 (stereo not drawn) [Example 10] | 0.5 to 30 | – | – |
| CC(C)OC(=O)N1CCN(C2c3ccc(Cl)cc3CCc3cc(Br)cnc32)CC1C(=O)N1CCCC(Cn2ccnc2)C1 (stereo not drawn) [Example 14] | 0.5 to 30 | – | – |
| O=C(C1CN(C2c3ccc(Cl)cc3CCc3cc(Br)cnc32)CCN1C(=O)OC1CCCCC1)N1CCCC(Cn2ccnc2)C1 (stereo not drawn) [Example 15] | 0.5 to 30 | – | – |
| CC(C)(C)NC(=O)N1CCN(C2c3ccc(Cl)cc3CCc3cc(Br)cnc32)CC1C(=O)N1CCCC(Cn2ccnc2)C1 (stereo not drawn) [Example 16] | 0.5 to 30 | – | – |
| CC(C)NC(=O)N1CCN([C@@H]2c3ccc(Cl)cc3CCc3cc(Br)cnc32)C[C@@H]1C(=O)N1CCC[C@@H](Cn2ccnc2)C1 [Example 17] | 0.5 to 30 | – | – |
| CC(C)(C)NC(=O)N1CCN([C@@H]2c3ccc(Cl)cc3CCc3cc(Br)cnc32)C[C@@H]1C(=O)N1CCC[C@H](Cn2ccnc2)C1 [Example 18] | 0.5 to 30 | – | – |
| CC(C)OC(=O)N1CCN([C@@H]2c3ccc(Cl)cc3CCc3cc(Br)cnc32)C[C@@H]1C(=O)N1CCC[C@H](Cn2ccnc2)C1 [Example 19] | 0.5 to 30 | – | – |
| CC(C)(C)OC(=O)N1CCN(C2c3ccc(Cl)cc3CCc3cc(Br)cnc32)C[C@@H]1C(=O)N1CCCCC1CCn1ccnc1 (stereo partly drawn) [Example 74, 1,1-DIMETHYLETHYL-4-(3-BROMO-8-CHLORO-6,11-DIHYDRO-5H-BENZO[5,6]CYCLOHEPTA[1,2-b]PYRIDIN-11-YL)-2(R)-[[2-[2-(1H-IMIDAZOL-1-YL)ETHYL]-1-PIPERIDINYL]CARBONYL]-1-PIPERAZINECARBOXYLATE] | – | 0.5 to 30 | 0.04 to 2.7 |
| CC(C)(C)OC(=O)N1CCN([C@H]2c3ccc(Cl)cc3CCc3cc(Br)cnc32)C[C@@H]1C(=O)N1CCCCC1CCn1ccnc1 (stereo partly drawn) [Example 138, 1,1-DIMETHYLETHYL 4-(3-BROMO-8-CHLORO-6,11-DIHYDRO-5H-BENZO[5,6]CYCLOHEPTA[1,2-b]PYRIDIN-11(S)-YL)-2(R)-[[2-[2-(1H-IMIDAZOL-1-YL)ETHYL]-1-PIPERIDINYL]CARBONYL]-1-PIPERAZINECARBOXYLATE] | – | 0.5 to 30 | 0.04 to 2.7 |
| CC(C)(C)OC(=O)N1CCN(C2c3ccc(Cl)cc3CCc3cc(Br)cnc32)C[C@@H]1C(=O)N1CCCCC1CCCn1ccnc1 (stereo partly drawn) [Example 145, 1,1-DIMETHYLETHYL 4-(3-BROMO-8-CHLORO-6,11-DIHYDRO-5H-BENZO[5,6]CYCLOHEPTA[1,2-b]PYRIDIN-11-YL)-2(R)-[[2-[3-(1H-IMIDAZOL-1-YL)PROPYL]-1-PIPERIDINYL]CARBONYL]-1-PIPERAZINECARBOXYLATE] | – | 0.5 to 30 | 0.04 to 2.7 |
| Cc1cn(CC2CCCN(C(=O)C3CN(C4c5ccc(Cl)cc5CCc5cc(Br)cnc54)CCN3C(=O)Cc3ccc(F)cc3)C2)cn1 (stereo not drawn) [Example 197] | 0.05 to 30 | – | 0.04 to 2.7 |
| Cc1cn(CC2CCCN(C(=O)C3CN(C4c5ccc(Cl)cc5CCc5ccc[n+]([O-])c54)CCN3C(=O)OC3CCCCC3)C2)cn1 (stereo not drawn) [Example 387] | 0.05 to 30 | – | 0.04 to 2.7 |
| Cc1cn(CC2CCCN(C(=O)C3CN(C4c5ccc(Cl)cc5CCc5cccnc54)CCN3C(=O)OCC(C)(C)C)C2)cn1 (stereo not drawn) [Example 411] | 0.05 to 30 | – | 0.04 to 2.7 |
| Cc1cn(C[C@@H]2CCCN(C(=O)[C@H]3CN(C4c5ccccc5CCc5ccccc54)CCN3C(=O)OC3CCCCC3)C2)cn1 [Example 414] | 0.05 to 30 | – | 0.04 to 2.7 |

— patent publication EP1140904B1, “FARNESYL PROTEIN TRANSFERASE INHIBITORS” (SCHERING CORPORATION, priority 1998, dated 2000)
